According to patent publication US20260130395A1, “Water Dispersible Botanical Compositions” (Aquila Black Limited, priority 2021, published 2026):

Experiment: Stability of cannabinoid compounds and Vitamin E components in Beverage 2 (AB Red) by LCMSMS
Assay type: physicochemical

Cc1c(C)c2c(c(C)c1OC(=O)CCC(=O)O)CC[C@@](C)(CCC[C@H](C)CCC[C@H](C)CCCC(C)C)O2 [α-Tocopheryl succinate]
Stability of Vitamin Es in AB Red (stored at 8° C., 0 days): 12.5 µg/mL | Stability of Vitamin Es in AB Red (stored at 8° C., 1 days): 11.7 µg/mL | Stability of Vitamin Es in AB Red (stored at 8° C., 2 days): 11.7 µg/mL | Stability of Vitamin Es in AB Red (stored at 8° C., 3 days): 11.7 µg/mL | Stability of Vitamin Es in AB Red (stored at 8° C., 5 days): 11.5 µg/mL | Stability of Vitamin Es in AB Red (stored at 8° C., 8 days): 12.6 µg/mL | Stability of Vitamin Es in AB Red (stored at 8° C., 9 days): 11.8 µg/mL | Stability of Vitamin Es in AB Red (stored at 8° C., 10 days): 12.6 µg/mL | Stability of Vitamin Es in AB Red (stored at 8° C., 11 days): 12.1 µg/mL | Stability of Vitamin Es in AB Red (stored at 8° C., 12 days): 12.7 µg/mL | Stability of Vitamin Es in AB Red (stored at 8° C., 15 days): 12.5 µg/mL | Stability of Vitamin Es in AB Red (stored at 8° C., 16 days): 11.5 µg/mL | Stability of Vitamin Es in AB Red (stored at 8° C., 17 days): 12.4 µg/mL | Stability of Vitamin Es in AB Red (stored at 8° C., 18 days): 11.9 µg/mL | Stability of Vitamin Es in AB Red (stored at 8° C., 19 days): 11.7 µg/mL | Stability of Vitamin Es in AB Red (stored at 8° C., 22 days): 11.9 µg/mL | Stability of Vitamin Es in AB Red (stored at 8° C., 23 days): 12.0 µg/mL | Stability of Vitamin Es in AB Red (stored at 8° C., 24 days): 12.2 µg/mL | Stability of Vitamin Es in AB Red (stored at 8° C., 25 days): 12.0 µg/mL | Stability of Vitamin Es in AB Red (stored at 8° C., 26 days): 12.5 µg/mL | Stability of Vitamin Es in AB Red (stored at 8° C., 29 days): 11.6 µg/mL | Stability of Vitamin Es in AB Red (stored at 8° C., 30 days): 12.4 µg/mL | Stability of Vitamin Es in AB Red (stored at 8° C., 60 days): 11.4 µg/mL | Stability of Vitamin Es in AB Red (stored at 8° C., 90 days): 11.5 µg/mL | Stability of Vitamin Es in AB Red (stored at 8° C., 120 days): 12.2 µg/mL | Stability of Vitamin Es in AB Red (stored at 8° C., 150 days): 11.5 µg/mL | Stability of Vitamin Es in AB Red (stored at 8° C., 180 days): 11.4 µg/mL | Stability of Vitamin Es in AB Red (stored at 8° C., 210 days): 11.4 µg/mL | Stability of Vitamin Es in AB Red (stored at 8° C., 240 days): 11.6 µg/mL | Stability of Vitamin Es in AB Red (stored at 8° C., 270 days): 11.5 µg/mL | Stability of Vitamin Es in AB Red (stored at 8° C., 300 days): 11.2 µg/mL | Stability of Vitamin Es in AB Red (stored at 8° C., 330 days): 11.7 µg/mL | Stability of Vitamin Es in AB Red (stored at 8° C., 360 days): 11.3 µg/mL | Stability of Vitamin Es in AB Red (stored at 8° C., 390 days): 11.2 µg/mL | Stability of Vitamin Es in AB Red (stored at 8° C., 420 days): 11.0 µg/mL | Stability of Vitamin Es in AB Red (stored at 8° C., 450 days): 11.2 µg/mL | Stability of Vitamin Es in AB Red (stored at 8° C., 480 days): 10.9 µg/mL | Stability of Vitamin Es in AB Red (stored at 8° C., 510 days): 10.8 µg/mL | Stability of Vitamin Es in AB Red (stored at 8° C., 540 days): 10.9 µg/mL | Stability of Vitamin Es in AB Red (stored at 8° C., 570 days): 10.6 µg/mL | Stability of Vitamin Es in AB Red (stored at 21-25° C., 0 days): 12.5 µg/mL | Stability of Vitamin Es in AB Red (stored at 21-25° C., 1 days): 12.5 µg/mL | Stability of Vitamin Es in AB Red (stored at 21-25° C., 2 days): 12.0 µg/mL | Stability of Vitamin Es in AB Red (stored at 21-25° C., 3 days): 11.9 µg/mL | Stability of Vitamin Es in AB Red (stored at 21-25° C., 5 days): 11.9 µg/mL | Stability of Vitamin Es in AB Red (stored at 21-25° C., 8 days): 12.0 µg/mL | Stability of Vitamin Es in AB Red (stored at 21-25° C., 9 days): 11.7 µg/mL | Stability of Vitamin Es in AB Red (stored at 21-25° C., 10 days): 12.0 µg/mL | Stability of Vitamin Es in AB Red (stored at 21-25° C., 11 days): 12.0 µg/mL | Stability of Vitamin Es in AB Red (stored at 21-25° C., 12 days): 12.4 µg/mL | Stability of Vitamin Es in AB Red (stored at 21-25° C., 15 days): 11.6 µg/mL | Stability of Vitamin Es in AB Red (stored at 21-25° C., 16 days): 11.6 µg/mL | Stability of Vitamin Es in AB Red (stored at 21-25° C., 17 days): 12.6 µg/mL | Stability of Vitamin Es in AB Red (stored at 21-25° C., 18 days): 12.1 µg/mL | Stability of Vitamin Es in AB Red (stored at 21-25° C., 19 days): 11.9 µg/mL | Stability of Vitamin Es in AB Red (stored at 21-25° C., 22 days): 11.6 µg/mL | Stability of Vitamin Es in AB Red (stored at 21-25° C., 23 days): 12.7 µg/mL | Stability of Vitamin Es in AB Red (stored at 21-25° C., 24 days): 12.4 µg/mL | Stability of Vitamin Es in AB Red (stored at 21-25° C., 25 days): 11.9 µg/mL | Stability of Vitamin Es in AB Red (stored at 21-25° C., 26 days): 12.1 µg/mL | Stability of Vitamin Es in AB Red (stored at 21-25° C., 29 days): 12.4 µg/mL | Stability of Vitamin Es in AB Red (stored at 21-25° C., 30 days): 12.1 µg/mL | Stability of Vitamin Es in AB Red (stored at 21-25° C., 60 days): 11.7 µg/mL | Stability of Vitamin Es in AB Red (stored at 21-25° C., 90 days): 11.6 µg/mL | Stability of Vitamin Es in AB Red (stored at 21-25° C., 120 days): 11.5 µg/mL | Stability of Vitamin Es in AB Red (stored at 21-25° C., 150 days): 11.4 µg/mL | Stability of Vitamin Es in AB Red (stored at 21-25° C., 180 days): 12.3 µg/mL | Stability of Vitamin Es in AB Red (stored at 21-25° C., 210 days): 11.6 µg/mL | Stability of Vitamin Es in AB Red (stored at 21-25° C., 240 days): 11.6 µg/mL | Stability of Vitamin Es in AB Red (stored at 21-25° C., 270 days): 11.0 µg/mL | Stability of Vitamin Es in AB Red (stored at 21-25° C., 300 days): 11.4 µg/mL | Stability of Vitamin Es in AB Red (stored at 21-25° C., 330 days): 11.4 µg/mL | Stability of Vitamin Es in AB Red (stored at 21-25° C., 360 days): 11.1 µg/mL | Stability of Vitamin Es in AB Red (stored at 21-25° C., 390 days): 10.8 µg/mL | Stability of Vitamin Es in AB Red (stored at 21-25° C., 420 days): 11.0 µg/mL | Stability of Vitamin Es in AB Red (stored at 21-25° C., 450 days): 11.2 µg/mL | Stability of Vitamin Es in AB Red (stored at 21-25° C., 480 days): 10.4 µg/mL | Stability of Vitamin Es in AB Red (stored at 21-25° C., 510 days): 10.6 µg/mL | Stability of Vitamin Es in AB Red (stored at 21-25° C., 540 days): 10.3 µg/mL | Stability of Vitamin Es in AB Red (stored at 21-25° C., 570 days): 10.6 µg/mL
